Laboratory results as given in patent US20240239752A1, “BICYCLIC HETEROAROMATIC INHIBITORS OF KLK5” (BioCryst Pharmaceuticals, Inc., priority 2021, published 2024).

molecular target: T1, recombinant human KLK5 (Homo sapiens, UniProt Q9Y337); test: Kallikrein (KLK) 5 enzymatic assay (Boc-VPR-AMC fluorogenic substrate); format: biochemical; conditions: recombinant human KLK5 0.1 μg/well, Boc-VPR-AMC 100 μM, pH 7.5, room temperature, 1% DMSO; tested a minimum of three times
T1 construct: purchased Novoprotein or R&D Systems C415 or 1108-SE
T1 sequence (Q9Y337 23-293): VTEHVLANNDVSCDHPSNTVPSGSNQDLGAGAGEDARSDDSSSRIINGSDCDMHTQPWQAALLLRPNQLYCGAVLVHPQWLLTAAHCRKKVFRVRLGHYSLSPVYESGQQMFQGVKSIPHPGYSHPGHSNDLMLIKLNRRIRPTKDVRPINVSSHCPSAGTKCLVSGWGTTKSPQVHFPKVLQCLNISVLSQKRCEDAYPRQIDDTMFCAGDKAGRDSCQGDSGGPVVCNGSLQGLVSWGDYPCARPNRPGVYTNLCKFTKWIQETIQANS
Outline: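 Fluorogenic rate assay at pH 7.5 (0.1 M NaH2PO4, 1% DMSO, room temperature), run at least three times per compound. Compound was premixed with 0.1 μg/well recombinant human KLK5 before adding 100 μM Boc-VPR-AMC; AMC release was read at ex 380/em 460 nm, and IC50 derived from inhibition of rate vs DMSO control.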

IC50 [nM]	SMILES
< 1000	Nc1nccc2ccc(-c3ccc4c(c3)c(COc3cccc(C5CC5)c3CC(=O)O)nn4C3CCOC3)cc12 (stereo not drawn) [Compound 290d, 2-(2-((5-(1-aminoisoquinolin-7-yl)-1-(tetrahydrofuran-3-yl)-1H-indazol-3-yl)methoxy)-6-cyclopropylphenyl)acetic acid]
1000 to 10000	N#Cc1cccc(OCc2nn(C3CCOC3)c3ccc(-c4ccc5ccnc(N)c5c4)cc23)c1CC(=O)O (stereo not drawn) [Compound 292d, 2-(2-((5-(1-aminoisoquinolin-7-yl)-1-(tetrahydrofuran-3-yl)-1H-indazol-3-yl)methoxy)-6-cyanophenyl)acetic acid]
< 1000	Nc1nccc2ccc(-c3ccc4c(c3)c(COc3ccccc3CC(=O)O)nn4CC3CNC3)cc12 [Compound 295c, 2-(2-((5-(1-aminoisoquinolin-7-yl)-1-(azetidin-3-ylmethyl)-1H-indazol-3-yl)methoxy)phenyl)acetic acid]
< 1000	Nc1nccc2ccc(-c3ccc4c(c3)c(COc3ccccc3CC(=O)O)nn4C3CCN(CC(=O)O)C3)cc12 (stereo not drawn) [Compound 297d, 2-(2-((5-(1-aminoisoquinolin-7-yl)-1-(1-(carboxymethyl)pyrrolidin-3-yl)-1H-indazol-3-yl)methoxy)phenyl)acetic acid]
< 1000	Nc1nccc2c(-c3ccc4c(c3)c(COc3ccccc3CC(=O)O)nn4C3CCN(CCO)C3)cccc12 (stereo not drawn) [Compound 298c, 2-(2-((5-(1-aminoisoquinolin-5-yl)-1-(1-(2-hydroxyethyl)pyrrolidin-3-yl)-1H-indazol-3-yl)methoxy)phenyl)acetic acid]
< 1000	Nc1nccc2ccc(-c3ccc4c(c3)c(COc3ccccc3CC(=O)O)nn4C3CCN(CCO)C3)cc12 (stereo not drawn) [Compound 299b, 2-(2-((5-(1-aminoisoquinolin-7-yl)-1-(1-(2-hydroxyethyl)pyrrolidin-3-yl)-1H-indazol-3-yl)methoxy)phenyl)acetic acid]
< 1000	COCCN1CCC(n2nc(COc3ccccc3CC(=O)O)c3cc(-c4cccc5c(N)nccc45)ccc32)C1 (stereo not drawn) [Compound 303c, 2-(2-((5-(1-aminoisoquinolin-5-yl)-1-(1-(2-methoxyethyl)pyrrolidin-3-yl)-1H-indazol-3-yl)methoxy)phenyl)acetic acid]
< 1000	COCCN1CCC(n2nc(COc3ccccc3CC(=O)O)c3cc(-c4ccc5ccnc(N)c5c4)ccc32)C1 (stereo not drawn) [Compound 304b, 2-(2-((5-(1-aminoisoquinolin-7-yl)-1-(1-(2-methoxyethyl)pyrrolidin-3-yl)-1H-indazol-3-yl)methoxy)phenyl)acetic acid]
< 1000	Nc1nccc2c(-c3ccc4c(c3)c(COc3ccccc3CC(=O)O)nn4C3CCN(CC(=O)O)C3)cccc12 (stereo not drawn) [Compound 305b, 2-(2-((5-(1-aminoisoquinolin-5-yl)-1-(1-(carboxymethyl)pyrrolidin-3-yl)-1H-indazol-3-yl)methoxy)phenyl)acetic acid]
< 1000	COCCN1CC(Cn2nc(COc3ccccc3CC(=O)O)c3cc(-c4ccc5ccnc(N)c5c4)ccc32)C1 [Compound 306c, 2-(2-((5-(1-aminoisoquinolin-7-yl)-1-((1-(2-methoxyethyl)azetidin-3-yl)methyl)-1H-indazol-3-yl)methoxy)phenyl)acetic acid]
< 1000	CC(C)CCN1CC(Cn2nc(COc3ccccc3CC(=O)O)c3cc(-c4ccc5ccnc(N)c5c4)ccc32)C1 [Compound 307c, 2-(2-((5-(1-aminoisoquinolin-7-yl)-1-((1-isopentylazetidin-3-yl)methyl)-1H-indazol-3-yl)methoxy)phenyl)acetic acid]
< 1000	CC(C)CCN1CCC(n2nc(COc3ccccc3CC(=O)O)c3cc(-c4ccc5ccnc(N)c5c4)ccc32)C1 (stereo not drawn) [Compound 309c, 2-(2-((5-(1-aminoisoquinolin-7-yl)-1-(1-isopentylpyrrolidin-3-yl)-1H-indazol-3-yl)methoxy)phenyl)acetic acid]
< 1000	CCOC(=O)N1CCC(n2nc(COc3ccccc3CC(=O)O)c3cc(-c4ccc5ccnc(N)c5c4)ccc32)C1 (stereo not drawn) [Compound 310c, 2-(2-((5-(1-aminoisoquinolin-7-yl)-1-(1-(ethoxycarbonyl)pyrrolidin-3-yl)-1H-indazol-3-yl)methoxy)phenyl)acetic acid]
< 1000	CCOC(=O)N1CCC(n2nc(COc3ccccc3CC(=O)O)c3cc(-c4cccc5c(N)nccc45)ccc32)C1 (stereo not drawn) [Compound 311b, 2-(2-((5-(1-aminoisoquinolin-5-yl)-1-(1-(ethoxycarbonyl)pyrrolidin-3-yl)-1H-indazol-3-yl)methoxy)phenyl)acetic acid]
< 1000	CCS(=O)(=O)N1CCC(n2nc(COc3ccccc3CC(=O)O)c3cc(-c4ccc5ccnc(N)c5c4)ccc32)C1 (stereo not drawn) [Compound 312c, 2-(2-((5-(1-aminoisoquinolin-7-yl)-1-(1-(ethylsulfonyl)pyrrolidin-3-yl)-1H-indazol-3-yl)methoxy)phenyl)acetic acid]
< 1000	CCS(=O)(=O)N1CCC(n2nc(COc3ccccc3CC(=O)O)c3cc(-c4cccc5c(N)nccc45)ccc32)C1 (stereo not drawn) [Compound 313b, 2-(2-((5-(1-aminoisoquinolin-5-yl)-1-(1-(ethylsulfonyl)pyrrolidin-3-yl)-1H-indazol-3-yl)methoxy)phenyl)acetic acid]
< 1000	COc1c(-c2ccc3c(c2)c(COc2ccccc2CC(=O)O)nn3C2CCCC2)ccnc1CN [Compound 327d, 2-(2-((5-(2-(aminomethyl)-3-methoxypyridin-4-yl)-1-cyclopentyl-1H-indazol-3-yl)methoxy)phenyl)acetic acid]
1000 to 10000	COc1c(-c2ccc3c(c2)c(COc2ccccc2CC(=O)O)nn3C2CCC2)ccnc1CN [Compound 328d, 2-(2-((5-(2-(aminomethyl)-3-methoxypyridin-4-yl)-1-cyclobutyl-1H-indazol-3-yl)methoxy)phenyl)acetic acid]

The remaining lines, values behind:

SMILES	IC50 [nM]
Nc1nccc2c(-c3ccc4c(c3)c(COc3cccc(C5CC5)c3CC(=O)O)nn4C3CCOC3)cccc12 (stereo not drawn) [Compound 291b, 2-(2-((5-(1-aminoisoquinolin-5-yl)-1-(tetrahydrofuran-3-yl)-1H-indazol-3-yl)methoxy)-6-cyclopropylphenyl)acetic acid]	< 1000
N#Cc1cccc(OCc2nn(C3CCOC3)c3ccc(-c4cccc5c(N)nccc45)cc23)c1CC(=O)O (stereo not drawn) [Compound 293b, 2-(2-((5-(1-aminoisoquinolin-5-yl)-1-(tetrahydrofuran-3-yl)-1H-indazol-3-yl)methoxy)-6-cyanophenyl)acetic acid]	< 1000
Cc1cccc(OCc2cn(C3CCOC3)c3ncc(-c4cccc5c(N)nccc45)cc23)c1CC(=O)O (stereo not drawn) [Compound 294c, 2-(2-((5-(1-aminoisoquinolin-5-yl)-1-(tetrahydrofuran-3-yl)-1H-pyrrolo[2,3-b]pyridin-3-yl)methoxy)-6-methylphenyl)acetic acid]	< 1000
Nc1nccc2c(-c3ccc4c(c3)c(COc3ccccc3CC(=O)O)nn4CC3CNC3)cccc12 [Compound 296b, 2-(2-((5-(1-aminoisoquinolin-5-yl)-1-(azetidin-3-ylmethyl)-1H-indazol-3-yl)methoxy)phenyl)acetic acid]	< 1000
COc1c(CN)cccc1-c1cc2c(COc3ccccc3CC(=O)O)cccc2o1 [Compound 300d, 2-(2-((2-(3-(aminomethyl)-2-methoxyphenyl)benzofuran-4-yl)methoxy)phenyl)acetic acid]	> 10000
Nc1nccc2c(-c3ccc4c(c3)c(C#Cc3ccccc3CC(=O)O)cn4C3CCOC3)cccc12 (stereo not drawn) [Compound 301f, 2-(2-((5-(1-aminoisoquinolin-5-yl)-1-(tetrahydrofuran-3-yl)-1H-indol-3-yl)ethynyl)phenyl)acetic acid]	< 1000
Nc1nccc2c(-c3ccc4c(c3)c(CCc3ccccc3CC(=O)O)cn4C3CCOC3)cccc12 (stereo not drawn) [Compound 302b, 2-(2-(2-(5-(1-aminoisoquinolin-5-yl)-1-(tetrahydrofuran-3-yl)-1H-indol-3-yl)ethyl)phenyl)acetic acid]	< 1000
CC(C)CCN1CC(Cn2nc(COc3ccccc3CC(=O)O)c3cc(-c4cccc5c(N)nccc45)ccc32)C1 [Compound 308b, 2-(2-((5-(1-aminoisoquinolin-5-yl)-1-((1-isopentylazetidin-3-yl)methyl)-1H-indazol-3-yl)methoxy)phenyl)acetic acid]	< 1000
COc1c(CN)cccc1-c1cc(OC)c2occ(COc3ccccc3CC(=O)O)c2c1 [Compound 324d, 2-(2-((5-(3-(aminomethyl)-2-methoxyphenyl)-7-methoxybenzofuran-3-yl)methoxy)phenyl)acetic acid]	> 10000
COc1c(CN)cccc1-c1ccc2c(c1)c(COc1ccccc1CC(=O)O)nn2C(C)C [Compound 325b, 2-(2-((5-(3-(aminomethyl)-2-methoxyphenyl)-1-isopropyl-1H-indazol-3-yl)methoxy)phenyl)acetic acid]	< 1000
COc1c(-c2ccc3c(c2)c(COc2ccccc2CC(=O)O)nn3C(C)C)ccnc1CN [Compound 326d, 2-(2-((5-(2-(aminomethyl)-3-methoxypyridin-4-yl)-1-isopropyl-1H-indazol-3-yl)methoxy)phenyl)acetic acid]	< 1000
COc1c(-c2cc3c(COc4ccccc4CC(=O)O)cccc3o2)ccnc1CN [Compound 329d, 2-(2-((2-(2-(aminomethyl)-3-methoxypyridin-4-yl)benzofuran-4-yl)methoxy)phenyl)acetic acid]	1000 to 10000
